Results published in EP0429304A2, “Pyridone-carboxylic acid derivatives and their use as veterinary medicines” (SHIONOGI SEIYAKU KABUSHIKI KAISHA trading under the name of …, priority 1989, dated 1991).
Where two headings read alike, the source gives them in different places.

System: TS-resistant strain of MG
Assay type: in vivo, chicken
Conditions: 9-days chicken; for Infectious index Left air sack + / Infectious index Left air sack ++ / Infectious index Left air sack +++ / Infectious index Left air sack - / Infectious index Right air sack + / Infectious index Right air sack ++ / Infectious index Right air sack +++ / Infectious index Right air sack -: count of fowl; for Infectious index Left air sack + / Infectious index Left air sack ++ / Infectious index Left air sack +++ / Infectious index Left air sack - / Infectious index Right air sack + / Infectious index Right air sack ++ / Infectious index Right air sack +++ / Infectious index Right air sack - / Number of fowl having air sack lesions: 1.7 x 10³ CFU/fowl; for Number of infected fowl/Number of fowl tested: 3.5 x 10³ CFU/fowl

Cl.Nc1c(F)c(N2C[C@@H]3CC[C@@H](N)[C@@H]3C2)c(F)c2c1c(=O)c(C(=O)O)cn2C1CC1 (relative stereo) [I-16]
Infectious index Left air sack + (oral 6.25 mg/kg): 0 | Infectious index Left air sack ++ (oral 6.25 mg/kg): 0 | Infectious index Left air sack +++ (oral 6.25 mg/kg): 0 | Infectious index Left air sack - (oral 6.25 mg/kg): 4 | Infectious index Right air sack + (oral 6.25 mg/kg): 0 | Infectious index Right air sack ++ (oral 6.25 mg/kg): 3 | Infectious index Right air sack +++ (oral 6.25 mg/kg): 0 | Infectious index Right air sack - (oral 6.25 mg/kg): 1 | Infectious index Left air sack + (oral 12.5 mg/kg): 0 | Infectious index Left air sack ++ (oral 12.5 mg/kg): 0 | Infectious index Left air sack +++ (oral 12.5 mg/kg): 0 | Infectious index Left air sack - (oral 12.5 mg/kg): 5 | Infectious index Right air sack + (oral 12.5 mg/kg): 0 | Infectious index Right air sack ++ (oral 12.5 mg/kg): 0 | Infectious index Right air sack +++ (oral 12.5 mg/kg): 0 | Infectious index Right air sack - (oral 12.5 mg/kg): 5 | Infectious index Left air sack + (oral 25.0 mg/kg): 0 | Infectious index Left air sack ++ (oral 25.0 mg/kg): 0 | Infectious index Left air sack +++ (oral 25.0 mg/kg): 0 | Infectious index Left air sack - (oral 25.0 mg/kg): 5 | Infectious index Right air sack + (oral 25.0 mg/kg): 0 | Infectious index Right air sack ++ (oral 25.0 mg/kg): 0 | Infectious index Right air sack +++ (oral 25.0 mg/kg): 0 | Infectious index Right air sack - (oral 25.0 mg/kg): 5 | Number of infected fowl/Number of fowl tested (oral 1.56 mg/kg): 5/5 | Number of infected fowl/Number of fowl tested (oral 3.13 mg/kg): 2/5 | Number of fowl having air sack lesions (oral 6.25 mg/kg): 3 | Number of infected fowl/Number of fowl tested (oral 6.25 mg/kg): 2/5 | Number of fowl having air sack lesions (oral 12.5 mg/kg): 0 | Number of fowl having air sack lesions (oral 25.0 mg/kg): 0
